Earlier results as cited in patent US20240148693A1, “COMPOSITION, PREPARATION METHOD THEREFOR, AND USE THEREOF” (CHANGSHA JINGYI PHARMACEUTICAL TECHNOLOGY CO., LTD, priority 2021, published 2024).

Tested on: synaptic vesicle glycoprotein 2A (SV2A)
Conditions: preclinical animal experiments

**Q.** For `CCC[C@@H]1CC(=O)N([C@@H](CC)C(N)=O)C1` [Brivaracetam], which “Affinity for SV2A relative to levetiracetam” value is on record?
**A.** 15-30 times
